“Also recorded” adds a separate entry of the source. Like-named read-outs stand apart in the source and are kept apart here.
Columns and labels:
[1] = target: T1, MVL (Microcystis viridis, UniProt Q9RHG4); assay type: binding; conditions: for Binding to MVL: Table 1, MVL binding studies
[2] = target: T1, MVL; assay type: binding; conditions: for Stoichiometry: carbohydrates per MVL monomer, 10 mM Tris pH 6.5; for ΔG: ΔG = −RT · lnKA, T = 298 K
[3] = target: T1, MVL; assay type: cell-based
[4] = system: HIV-1 T-cell tropic (T-tropic) strain LAV; conditions: read-out: IC50, inhibition of Env-mediated fusion
[5] = system: HIV-1 macrophage tropic (M-tropic) strain SF162; conditions: read-out: IC50, inhibition of Env-mediated fusion
[6] = system: M-tropic virus SF162 and a T-tropic virus (LAV); test: Single round HIV-infectivity assay; assay type: cell-based; conditions: read-out: approximate IC50, HIV infectivity
[7] = excess carbohydrate, pH 6.85, 27° C.

For CC(=O)N[C@H]1[C@H](O[C@H]2[C@H](O)[C@@H](NC(C)=O)C(O)O[C@@H]2CO)O[C@H](CO)[C@@H](O)[C@@H]1O (stereo partly shown) [GlcNAcβ(1→4) GlcNAc, GlcNAcβ(1→4)GlcNAc], the “binding to MVL / change of 1H-15N correlation spectra of MVL” value (from here on “binding to MVL / change”) [1, 7] was “nor do they bind” and the “binding to MVL / change” value ([1]; excess carbohydrate, pH 6.85, 27° C., listed as GlcNAc2) was “identical to that of free MVL”.

In the case of CC(=O)N[C@H]1C(O)O[C@H](CO)[C@@H](O[C@@H]2O[C@H](CO)[C@@H](O)[C@H](O)[C@@H]2O)[C@@H]1O (stereo partly shown) [Manβ(1→4)GlcNAc], the “binding to MVL / change” value ([1]; pH 6.85) is reported as “nor do they bind”.

With CC(=O)N[C@H]1[C@H](O[C@H]2[C@H](O)[C@@H](NC(C)=O)C(O)O[C@@H]2CO)O[C@H](CO)[C@@H](O[C@@H]2O[C@H](CO[C@H]3O[C@H](CO)[C@@H](O)[C@H](O)[C@@H]3O)[C@@H](O)[C@H](O)[C@@H]2O)[C@@H]1O (stereo partly shown) [oligomannose-2A, Manα(1→6)Manβ(1→4)GlcNAcβ(1→4)GlcNAc] the ΔH ([2]; 25° C., pH 6.5) was -10.5 ± 0.04 kcal/mol, the Stoichiometry ([2]; one site model, 25° C., listed as Man2A) was 2.04 ± 0.05 and the Stoichiometry ([2]; one site model, 25° C., listed as Man2GlcNAc2) was “two”. The ΔG [2] was -7.4 ± 0.6 kcal/mol, the “Binding to MVL” value [1] was 3 and the “binding to MVL / change” value [1, 7] was “binds with high affinity”.

CC(=O)N[C@H]1[C@H](O[C@H]2[C@H](O)[C@@H](NC(C)=O)C(O)O[C@@H]2CO)O[C@H](CO)[C@@H](O[C@@H]2O[C@H](CO[C@H]3O[C@H](CO[C@H]4O[C@H](CO)[C@@H](O)[C@H](O)[C@@H]4O)[C@@H](O)[C@H](O[C@H]4O[C@H](CO)[C@@H](O)[C@H](O)[C@@H]4O)[C@@H]3O)[C@@H](O)[C@H](O[C@H]3O[C@H](CO)[C@@H](O)[C@H](O)[C@@H]3O)[C@@H]2O)[C@@H]1O (stereo partly shown) [oligomannose-5, Man5GlcNAc2] was tested, and the “Binding to MVL” value [1] was 3.

For Man6GlcNAc2 [oligomannose-6], the ΔH ([2]; 25° C., pH 6.5) was -20.8 ± 0.1 kcal/mol, the Stoichiometry ([2]; one site model, 25° C., listed as Man6) was 2.06 ± 0.01 and the Stoichiometry ([2]; one site model, 25° C., listed as Man6GlcNAc2) was “two”. For the same molecule, the Ka ([2]; equilibrium association constant, one site model, 25° C., pH 6.5) was 4.5 (±0.3)×10^6 M^−1, the ΔG [2] was -9.0 ± 0.6 kcal/mol and the “lifetime of the MVL:carbohydrate complex” value ([1]; (2πΔδ)^−1 from chemical shift differences) was greater than 16 ms. For the same molecule, the “Binding to MVL” value [1] was 3 and the “binding to MVL / change” value [1, 7] was “dramatic changes”.

For Man9GlcNAc2 [oligomannose-9], the “Binding to MVL” value [1] was 3 and the “effect of pretreatment of MVL on inhibition of fusion by MVL” value ([3]; MVL 200 nM, 5-fold excess of carbohydrate) was “partially reduced inhibition”.

For “Manα (1→3)[Manα(1→6)]Manβ [Manα(1→3)[Manα(1→6)]Man]”, the “binding to MVL / change” value ([1]; pH 6.85) was “identical to that of free MVL; also recorded: nor do they bind” and the “effect of pretreatment of MVL on inhibition of fusion by MVL” value [3] was “no effect”.

B1: MVL: 113 amino acid, 13 kDa carbohydrate binding protein (lectin) from Microcystis viridis NIES-102, SEQ ID NO: 3 (protein, listed as Microcystis viridis)
chain: ASYKVNIPAGPLWSNAEAQQVGPKIAAAHQGNFTGQWTTVVESAMSVVEVELQVENTGIHEFKTDVLAGPLWSNDEAQKLGPQIAASYGAEFTGQWRTIVEGVMSVIQIKYTF
Work on B1 yielded an IC50 [4] of 30 ± 4 nM, an IC50 [5] of 37 ± 6 nM and an IC50 [6] of 30 to 50 nM.
